This is an account of results in patent US7408063B2, “1,8-annelated quinoline derivatives substituted with carbon-linked triazoles as farnesyl transferase inhibitors” (Janssen Pharmaceutica, N.V., priority 2001, dated 2008).

Data set [1] concerns the target farnesyl protein transferase (Homo sapiens, UniProt P49354+P49356). In words: In vitro assay for inhibition of farnesyl protein transferase. In kind it is biochemical. Conditions: negative log value of the IC50-value; IC50 = concentration needed to reduce the product of the enzymatic reaction to 50% of the control; read-out: Enzyme activity pIC50 (converted). The procedure: An in vitro assay for inhibition of farnesyl transferase was performed essentially as described in WO 98/40383, pages 33-34. When appropriate, IC50-values (concentration of the drug, needed to reduce the product of the enzymatic reaction, to 50% of the conrol) were computed using probit analysis for graded data (Finney, D. J., Probit Analuses, 2nd Ed. Chapter 10, Graded Responses, Cambridge Univerity Press, Cambridge 1962). Herein (see table F-3) the effects of test compounds are expressed as pIC50 (the negative log value of the IC50-value). Also the intermediate compounds described in the table F-1 show activity in the in vitro assay for inhibition of farnesyl protein transferase.

Each structure is given as a SMILES string.

With `Cn1cnnc1C(c1ccc(I)cc1)c1cc2c3c(c1)c(-c1cccc(Cl)c1)cc(=O)n3CC2` (stereo not shown) (hydrate or solvate) [Compound 1, 6-(3-chlorophenyl)-1,2-dihydro-8-[(4-iodophenyl)(4-methyl-4H-1,2,4-triazol-3-yl)methyl]-4H-pyrrolo[3,2,1-ij]quinolin-4-one], the melting point worked out at 194 °C. Take `Cn1cnnc1C(c1ccc(I)cc1)c1cc2c3c(c1)c(-c1cccc(Cl)c1)cc(=O)n3CC2` (stereo not shown) [Compound 1, 6-(3-chlorophenyl)-1,2-dihydro-8-[(4-iodophenyl)(4-methyl-4H-1,2,4-triazol-3-yl)methyl]-4H-pyrrolo[3,2,1-ij]quinolin-4-one]: the IC50 in data set [1] was 21.4 nM. As for `Cn1cnnc1C(c1ccc(C#N)cc1)c1cc2c3c(c1)c(-c1cccc(Cl)c1)cc(=O)n3CC2` (stereo not shown) [Compound 2, 4-[[6-(3-chlorophenyl)-1,2-dihydro-4-oxo-4H-pyrrolo[3,2,1-ij]quinolin-8-yl](4-methyl-4H-1,2,4-triazol-3-yl)methyl]-benzonitrile], the melting point stood at 174 °C. Further, the IC50 in data set [1] was 2.02 nM. `Cn1cnnc1C(O)(c1ccc(Cl)cc1)c1cc2c3c(c1)c(-c1cccc(Cl)c1)cc(=O)n3CCC2` (stereo not shown) [Compound 3, 7-(3-chlorophenyl)-9-[(4-chlorophenyl)hydroxy(4-methyl-4H-1,2,4-triazol-3-yl)methyl]-2,3-dihydro-1H,5H-benzo[ij]quinolizin-5-one] showed a melting point of 183 °C. Also, the IC50 in data set [1] is 8.18 nM. For `Cn1cnnc1C(O)(c1ccc(F)cc1)c1cc2c3c(c1)c(-c1cccc(Cl)c1)cc(=O)n3CC2` (stereo not shown) [Compound 4, 6-(3-chlorophenyl)-8-[(4-fluorophenyl)hydroxy(4-methyl-4H-1,2,4-triazol-3-yl)methyl]-1,2-dihydro-4H-pyrrolo[3,2,1-ij]quinolin-4-one], the IC50 in data set [1] is 5.77 nM. As to `CC(=O)NC(c1ccc(F)cc1)(c1cc2c3c(c1)c(-c1cccc(Cl)c1)cc(=O)n3CC2)c1nncn1C` (stereo not shown) [Compound 5, N-[[6-(3-chlorophenyl)-1,2-dihydro-4-oxo-4H-pyrrolo[3,2,1-ij]quinolin-8-yl](4-fluorophenyl)(4-methyl-4H-1,2,4-triazol-3-yl)methyl]-acetamide], the melting point turned out to be 196 °C. In addition, the IC50 in data set [1] was 3.4 nM.

Compound `COC(c1ccc(Cl)cc1)(c1cc2c3c(c1)c(-c1cccc(Cl)c1)cc(=O)n3CCC2)c1nncn1C` (stereo not shown) [Compound 6, 7-(3-chlorophenyl)-9-[(4-chlorophenyl)methoxy(4-methyl-4H-1,2,4-triazol-3-yl)methyl]-2,3-dihydro-1H,5H-benzo[ij]quinolizin-5-one] yielded a melting point of 132 °C. For the same compound, in data set [1], the IC50 was less than 100 nM. In the same order, the values of `Cn1cnnc1C(OCCO)(c1ccc(F)cc1)c1cc2c3c(c1)c(-c1cccc(Cl)c1)cc(=O)n3CC2` (stereo not shown) [Compound 7, 6-(3-chlorophenyl)-8-[(4-fluorophenyl)(2-hydroxyethoxy)(4-methyl-4H-1,2,4-triazol-3-yl)methyl]-1,2-dihydro-4H-pyrrolo[3,2,1-ij]quinolin-4-one] are 138 °C and 3.95 nM. With `Cn1cnnc1C(c1ccc(F)cc1)(c1cc2c3c(c1)c(-c1cccc(Cl)c1)cc(=O)n3CC2)n1ccnc1` (stereo not shown) [Compound 8, 6-(3-chlorophenyl)-8-[(4-fluorophenyl)-1H-imidazol-1-yl(4-methyl-4H-1,2,4-triazol-3-yl)methyl]-1,2-dibydro-4H-pyrrolo[3,2,1-ij]quinolin-4-one], in data set [1], the IC50 is 3.84 nM. `Cn1cnnc1C(N)(c1ccc(F)cc1)c1cc2c3c(c1)c(-c1cccc(Cl)c1)cc(=O)n3CC2` (stereo not shown) [Compound 9, 8-[amino(4-fluorophenyl)(4-methyl-4H-1,2,4-triazol-3-yl)methyl]-6-(3-chlorophenyl)-1,2-dihydro-4H-pyrrolo[3,2,1-ij]quinolin-4-one]: the IC50 in data set [1] was 2.98 nM. Still for that read-out and setting: for `COC(c1ccc(F)cc1)(c1cc2c3c(c1)c(-c1cccc(Cl)c1)cc(=O)n3CC2)c1nncn1C` (stereo not shown) [Compound 10, 6-(3-chlorophenyl)-8-[(4-fluorophenyl)methoxy(4-methyl-4H-1,2,4-triazol-3-yl)methyl]-1,2-dihydro-4H-pyrrolo[3,2,1-ij]quinolin-4-one] the value was 29.3 nM; for `Cn1cnnc1C(O)(c1ccc(Cl)cc1)c1cc2c3c(c1)c(-c1ccc(Cl)cc1)cc(=O)n3CC2` (stereo not shown) [Compound 11], less than 100 nM. On to `Cn1cnnc1C(O)(c1ccc(Cl)cc1)c1cc2c3c(c1)c(-c1cccc(Cl)c1)c(Br)c(=O)n3CC2` (stereo not shown) [Compound 12], for which the IC50 in data set [1] is more than 100 nM. Still for that read-out and setting: the same measure for `Cn1cnnc1C(O)(c1ccc(Br)cc1)c1cc2c3c(c1)c(-c1cccc(Br)c1)cc(=O)n3CC2` (stereo not shown) [Compound 13]: 5.86 nM.

The term melting point denotes the temperature, or range, at which the solid turns liquid.
